Results on one compound are retold here after publication PMC10333465, “Multi-Function of a New Bioactive Secondary Metabolite Derived from Endophytic Fungus Colletotrichum acutatum of Angelica sinensis” (Journal of Microbiology and Biotechnology, 2022).

Converted amounts (≈) assume the structure as drawn.

What all share (type): biochemical
One test has as its target α-glucosidase. The test can be described thus: colorimetric pNPG enzyme assay.
The target in test [1] is T1, DNA topoisomerase I (Human Top I) (Homo sapiens, UniProt P11387).
T1 construct: gene TOP1
T1 sequence (P11387 2-765): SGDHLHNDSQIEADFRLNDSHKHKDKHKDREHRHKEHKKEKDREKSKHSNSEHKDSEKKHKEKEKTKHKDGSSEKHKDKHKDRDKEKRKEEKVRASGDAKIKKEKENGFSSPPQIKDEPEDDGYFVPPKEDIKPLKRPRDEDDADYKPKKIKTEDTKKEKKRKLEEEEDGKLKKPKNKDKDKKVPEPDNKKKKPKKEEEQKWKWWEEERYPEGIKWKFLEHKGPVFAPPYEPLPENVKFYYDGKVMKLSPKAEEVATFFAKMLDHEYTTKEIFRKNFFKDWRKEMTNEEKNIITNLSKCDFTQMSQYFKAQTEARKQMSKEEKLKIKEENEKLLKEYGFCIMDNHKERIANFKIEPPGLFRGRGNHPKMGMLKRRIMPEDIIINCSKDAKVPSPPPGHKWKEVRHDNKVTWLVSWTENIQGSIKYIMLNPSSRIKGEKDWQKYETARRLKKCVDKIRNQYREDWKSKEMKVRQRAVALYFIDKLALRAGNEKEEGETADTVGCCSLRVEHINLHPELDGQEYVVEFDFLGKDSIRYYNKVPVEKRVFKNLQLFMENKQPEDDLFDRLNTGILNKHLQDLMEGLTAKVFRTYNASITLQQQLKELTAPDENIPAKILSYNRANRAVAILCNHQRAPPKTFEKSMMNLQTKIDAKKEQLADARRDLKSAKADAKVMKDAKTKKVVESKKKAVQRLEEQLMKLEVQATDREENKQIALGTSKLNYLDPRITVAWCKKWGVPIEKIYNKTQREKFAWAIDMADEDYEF
Put plainly: pBR322 supercoiled DNA relaxation assay, agarose gel ([…]).

For the next test, the target named is α-amylase. The test can be described thus: colorimetric starch/DNS enzyme assay.

Take `CCCC(O)c1coc(=O)c(C)c1OC` (stereo not drawn) [C-HMMP, 5-(1-hydroxybutyl)-4-methoxy-3-methyl-2H-pyran-2-one]: the IC50 (commonly the point on the concentration scale where inhibition reaches its midpoint) on α-glucosidase was 144.7 µg/mL (≈ 682 µM); against α-amylase, 118.6 µg/mL (≈ 559 µM). In addition, the “pBR322 supercoiled DNA relaxation assay, agarose gel (50, 150, 250 μg/ml)” value in test [1] is listed as ~ 250 μg/ml.
